# Assay results: US10752587B2, “Homobispiperidinyl derivatives as liver X receptor beta agonists, compositions and their use” (Merck Sharp & Dohme Corp., priority 2015, dated 2020)
# What was measured:
# [1] = molecular target: T1, glutathione-S-transferase (GST) tagged LXRbeta LBD (ligand binding domain) (Homo sapiens, UniProt P55055); test: LanthaScreen TR-FRET Liver X Receptor Coactivator Assay, co-activator recruitment to LXRbeta LBD; type: biochemical; conditions: for Emax: efficacy at max dose, in relation to reference dual agonist T0901317, read-out: LXR beta Activity @ max dose (%); for EC50: potency (Inflection Point, IP), co-activator recruitment to LXRbeta LBD, in relation to T0901317, read-out: LXR beta IP
# T1 construct: purchased Invitrogen pv4658.pps
# T1 sequence (P55055 222-460 limits assumed): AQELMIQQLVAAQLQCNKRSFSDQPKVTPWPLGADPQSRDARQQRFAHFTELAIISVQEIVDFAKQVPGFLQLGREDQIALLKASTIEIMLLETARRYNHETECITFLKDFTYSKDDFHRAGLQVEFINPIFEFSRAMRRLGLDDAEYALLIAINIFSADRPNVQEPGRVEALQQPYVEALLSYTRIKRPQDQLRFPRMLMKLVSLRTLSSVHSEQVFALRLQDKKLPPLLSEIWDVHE
# Summary of the method: (§1)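 TR-FRET coactivator recruitment; compound + LBD, then fluorescein-coactivator peptide/Tb-anti-GST Ab mix; RT incubation; IP and Emax vs T0901317.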
# [2] = molecular target: T2, glutathione-S-transferase (GST) tagged LXRalpha LBD (ligand binding domain) (Homo sapiens, UniProt Q13133); test: LanthaScreen TR-FRET Liver X Receptor Coactivator Assay, co-activator recruitment to LXRalpha LBD; type: biochemical; conditions: for Emax: efficacy at max dose, in relation to reference dual agonist T0901317, read-out: LXR alpha Activity @ max dose (%); for LXR alpha IP (nM) / EC50: potency (Inflection Point, IP), co-activator recruitment to LXRalpha LBD, in relation to T0901317; for EC50: read-out: LXR alpha IP
# T2 construct: purchased Invitrogen pv4655
# T2 sequence (Q13133 209-447 limits assumed): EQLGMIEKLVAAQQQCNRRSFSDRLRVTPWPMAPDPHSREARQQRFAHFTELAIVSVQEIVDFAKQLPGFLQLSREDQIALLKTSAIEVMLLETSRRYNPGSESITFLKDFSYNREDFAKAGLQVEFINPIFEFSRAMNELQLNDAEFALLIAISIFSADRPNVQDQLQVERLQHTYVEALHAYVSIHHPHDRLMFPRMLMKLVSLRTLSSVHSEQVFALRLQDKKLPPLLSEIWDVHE
# Summary of the method: as §1
Emax [1] [%],EC50 [1] [nM],Emax [2] [%],LXR alpha IP (nM) [2],EC50 [2] [nM],SMILES
24,6,0,NO IP,–,"COc1cc(Cl)cc([C@@](O)(C(=O)N2CCC(CC3CCN(c4ccc(C(=O)N(C)C)c(Cl)c4)CC3)CC2)C(F)(F)F)c1 [Example 2-100, 2-chloro-4-[4-({1-[(2R)-2-(3-chloro-5-methoxy-phenyl)-3,3,3-trifluoro-2-hydroxy-propanoyl]piperidin-4-yl}methyl)piperidin-1-yl]-N,N-dimethyl-benzamide]"
71,11,17,NO IP,–,"CN(C)C(=O)c1ccc(N2CCC(CC3CCN(C(=O)[C@](O)(c4csc5ccccc45)C(F)(F)F)CC3)CC2)cc1Cl (stereo in doubt) [Example 2-169, 4-[4-({1-[2-(1-benzothiophen-3-yl)-3,3,3-trifluoro-2-hydroxy-propanoyl]piperidin-4-yl}methyl)piperidin-1-yl]-2-chloro-N,N-dimethyl-benzamide]"
79,–,25,–,–,"CN(C)C(=O)c1ccc(N2CCC(CC3CCN(C(=O)[C@](O)(c4ccccc4)C(F)(F)F)CC3)CC2)cc1Cl [Example 2-12, 2-chloro-N,N-dimethyl-4-[4-({1-[(2R)-3,3,3-trifluoro-2-hydroxy-2-phenylpropanoyl]piperidin-4-yl}methyl)piperidin-1-yl]benzamide]"
19,27,0,NO IP,–,"CN(C)C(=O)c1ccc(N2CCC(CC3CCN(C(=O)C(O)(c4cccc5c4CCC5)C(F)(F)F)CC3)CC2)cc1Cl (stereo not shown) [Example 2-170, 2-chloro-4-[4-({1-[2-(2,3-dihydro-1H-inden-4-yl)-3,3,3-trifluoro-2-hydroxy-propanoyl]piperidin-4-yl}methyl)piperidin-1-yl]-N,N-dimethyl-benzamide]"
95,22,10,NO IP,–,"CCOc1cccc([C@@](O)(C(=O)N2CCC(SC3CCN(c4ccc(C(=O)NC)c(Cl)n4)CC3)CC2)C(F)(F)F)c1 [Example 11-2, 2-chloro-6-[4-({1-[(2R)-2-(3-ethoxyphenyl)-3,3,3-trifluoro-2-hydroxypropanoyl]-piperidin-4-yl}-sulfanyl)piperidin-1-yl]-N-methyl-pyridine-3-carboxamide]"
145,27,74,–,373,"CNC(=O)c1ccc(N2CCC(CC3CCN(C(=O)[C@](O)(c4ccccc4)C(F)(F)C(F)(F)F)CC3)CC2)nc1Cl [Example 7-131, 2-chloro-N-methyl-6-[4-({1-[(2R)-3,3,4,4,4-pentafluoro-2-hydroxy-2-phenylbutanoyl]piperidin-4-yl}methyl)piperidin-1-yl]pyridine-3-carboxamide]"
131,21,51,–,900,"CN(C)C(=O)c1ccc(N2CCC(OC3CCN(C(=O)[C@](O)(c4ccccc4)C(F)(F)C(F)(F)F)CC3)CC2)cc1Cl [Example 2-22, 2-chloro-N,N-dimethyl-4-[4-({1-[(2R)-3,3,4,4,4-pentafluoro-2-hydroxy-2-phenylbutanoyl]piperidin-4-yl}oxy)piperidin-1-yl]benzamide]"
83,14,34,–,166,"CCN(C)C(=O)c1ccc(N2CCC(CC3CCN(C(=O)[C@](O)(c4ccccc4)C(F)(F)F)CC3)CC2)cc1Cl [Example 4-12, 2-chloro-N-ethyl-N-methyl-4-[4-({1-[(2R)-3,3,3-trifluoro-2-hydroxy-2-phenylpropanoyl]piperidin-4-yl}methyl)piperidin-1-yl]benzamide]"
81,2,36,–,29,"CN(C)C(=O)c1ccc(N2CCC(CC3CCN(C(=O)[C@](O)(c4cc(F)cc(Cl)c4)C(F)(F)F)CC3)CC2)cc1Cl [Example 2-102, 2-chloro-4-[4-({1-[(2R)-2-(3-chloro-5-fluorophenyl)-3,3,3-trifluoro-2-hydroxy-propanoyl]piperidin-4-yl}methyl)piperidin-1-yl]-N,N-dimethyl-benzamide]"
